The record followed here is US20050209232A1, “Pyridazinone ureas as antagonists of alpha4 integrins” (priority 2004, published 2005).

Test [1] has as its target T1, α4β1 (Homo sapiens, UniProt P05556+P13612).
T1 construct: Ramos cells, (50 μL at 2×10^6/mL) labeled with 5 μM Calcein AM; endogenous in cells; host or cells: Ramos cells
In words: Ramos Cell Adhesion Assay (α4β1 Mediated Adhesion/VCAM-1). Conditions: Ramos cells adhering to recombinant hVCAM-1. Type of test: cell-based. Here is the method: Ramos Cell Adhesion Assay (α4β1 Mediated Adhesion/VCAM-1)
Immulon 96 well plates (Dynex) were coated with 100 μL recombinant hVCAM-1 at 4.0 μg/mL in 0.05 M NaCO3 buffer pH 9.0 overnight at 4° C. (R&D Systems). Plates were washed 2 times in PBS with 1% BSA and blocked for 1 h@room temperature in this buffer. PBS was removed and compounds to be tested (50 μL) were added at 2× concentration. Ramos cells, (50 μL at 2×10^6/mL) labeled with 5 μM Calcein AM (Molecular Probes) for 1 h at 37° C., were added to each well and allowed to adhere for 1 h at room temperature. Plates were washed 4 × in PBS+1% BSA and cells were lysed for 15 minutes in 100 μL of 1 M Tris pH 8.0 with 1% SDS. The plate was read at 485 nm excitation and 530 nm emission.

Test [2] addresses T2, human α4β7 integrin (Homo sapiens, UniProt P13612+P26010).
T2 construct: expressed in transfected cells; host or cells: K562 cells, stably transfected
T2 sequence (P13612 34-1032): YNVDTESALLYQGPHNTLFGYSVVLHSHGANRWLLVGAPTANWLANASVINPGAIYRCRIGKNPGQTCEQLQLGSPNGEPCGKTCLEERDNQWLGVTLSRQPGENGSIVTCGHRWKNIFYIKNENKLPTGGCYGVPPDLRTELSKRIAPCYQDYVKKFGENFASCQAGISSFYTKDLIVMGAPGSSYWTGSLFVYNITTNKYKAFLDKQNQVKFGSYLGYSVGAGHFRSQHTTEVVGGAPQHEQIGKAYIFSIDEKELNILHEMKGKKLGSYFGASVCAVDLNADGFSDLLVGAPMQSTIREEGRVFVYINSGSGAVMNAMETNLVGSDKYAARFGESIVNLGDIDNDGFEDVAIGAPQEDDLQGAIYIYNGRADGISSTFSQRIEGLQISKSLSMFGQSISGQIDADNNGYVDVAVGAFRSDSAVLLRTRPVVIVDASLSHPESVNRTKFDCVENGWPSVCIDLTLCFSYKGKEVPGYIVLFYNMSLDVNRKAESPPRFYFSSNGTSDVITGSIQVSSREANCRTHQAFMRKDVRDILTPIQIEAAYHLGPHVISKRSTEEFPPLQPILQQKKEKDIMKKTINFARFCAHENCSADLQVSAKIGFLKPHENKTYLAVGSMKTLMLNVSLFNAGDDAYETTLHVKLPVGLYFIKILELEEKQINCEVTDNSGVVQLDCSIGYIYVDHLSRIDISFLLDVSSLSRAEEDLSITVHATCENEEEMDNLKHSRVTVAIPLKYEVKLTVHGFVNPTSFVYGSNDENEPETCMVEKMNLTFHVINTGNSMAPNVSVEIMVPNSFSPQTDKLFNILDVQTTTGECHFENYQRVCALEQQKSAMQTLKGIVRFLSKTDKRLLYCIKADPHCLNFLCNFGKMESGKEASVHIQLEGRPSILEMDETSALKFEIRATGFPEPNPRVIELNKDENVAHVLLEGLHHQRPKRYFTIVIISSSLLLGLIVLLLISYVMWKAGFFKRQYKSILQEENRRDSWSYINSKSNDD
T2 sequence (P26010 20-798): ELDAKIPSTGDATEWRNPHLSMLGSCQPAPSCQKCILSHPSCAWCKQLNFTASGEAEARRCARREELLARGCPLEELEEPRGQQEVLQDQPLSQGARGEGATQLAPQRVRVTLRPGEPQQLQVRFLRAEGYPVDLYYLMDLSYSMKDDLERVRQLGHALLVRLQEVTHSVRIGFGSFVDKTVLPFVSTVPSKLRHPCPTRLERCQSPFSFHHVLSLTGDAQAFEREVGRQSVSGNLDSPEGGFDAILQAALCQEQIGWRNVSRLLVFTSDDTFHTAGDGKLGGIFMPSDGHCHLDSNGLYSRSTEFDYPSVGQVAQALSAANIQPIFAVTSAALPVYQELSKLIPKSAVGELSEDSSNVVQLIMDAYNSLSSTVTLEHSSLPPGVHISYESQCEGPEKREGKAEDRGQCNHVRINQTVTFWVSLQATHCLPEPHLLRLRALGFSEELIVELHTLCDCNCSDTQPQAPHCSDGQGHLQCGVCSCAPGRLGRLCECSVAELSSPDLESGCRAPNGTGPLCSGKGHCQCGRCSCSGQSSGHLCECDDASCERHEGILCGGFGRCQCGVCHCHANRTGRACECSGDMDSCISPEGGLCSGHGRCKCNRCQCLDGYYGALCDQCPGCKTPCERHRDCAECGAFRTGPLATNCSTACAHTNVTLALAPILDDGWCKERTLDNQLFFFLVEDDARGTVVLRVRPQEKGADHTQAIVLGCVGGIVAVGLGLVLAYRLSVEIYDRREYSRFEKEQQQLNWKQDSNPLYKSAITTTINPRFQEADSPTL
In words: α4β7-K562 Cell Adhesion Assay (α4β7 Mediated Adhesion/MAdCAM-1). Type of test: cell-based. The settings on record: K562 cells expressing human α4β7 adhering to FLAG-hMAdCAM-1, 1 mM Mn2+. Here is the method:
α4β7-K562 Cell Adhesion Assay (α4β7 Mediated Adhesion/MAdCAM-1)
M2 anti-FLAG Antibody Coated 96-well plates (Sigma) were coated for 1 hour at 4° C. with 2-8 μL/well recombinant FLAG-hMAdCAM-1 contained in 100 μL of Dulbecco's PBS, pH 7.4, with 1% BSA and 1 mM Mn^2+ (PBS-BSA-Mn). Plates were washed once with PBS-BSA-Mn. Buffer was removed and compounds to be tested (50 μL) were added at 2× concentration. Stably transfected K562 cells expressing human α4β7 integrin, (50 μL at 2×10^6/mL) that had been labeled with 100 μg/mL carboxymethyl fluorescein diacetate succinimidyl ester (CFDA-SE; Molecular Probes) for 15 min at 37° C. were added to each well and allowed to adhere for 1 h at room temperature. Plates were washed 4× in PBS-BSA-Mn and then cells were lysed for 2 min by addtion of 100 μL of PBS without Ca^2+, Mg^2+ supplemented with 0.1 M NaOH. The plate was read on a 96-well fluorescent plate reader at 485 nm excitation and 530 nm emission.

Test [3] has as its system Balb/c mice. In words: In Vivo Model for Leukocytosis. Also noted: species or system mouse. Conditions: bled 1-1.5 h after administration. The source says:
In Vivo Model for Leukocytosis
Leukocytosis the increase in circulating white blood cells (leukocytes). This can be brought about by preventing leukocyte binding to integrin counter-receptor adhesion molecules expressed on high endothelial venules. This cell adhesion occurs between immunoglobulin superfamily molecules and integrins. Relevant examples of these paired interactions include Intracellular Adhesion Molecule-1 and AlphaL Beta2 integrin, Vascular Cell Adhesion Molecule-1 and α4β1 integrin, and Mucosal Addressin Cell Adhesion Molecule-1 and α4β7 integrin, respectively.
In this model, a compound that antagonizes these leukocyte-endothelial interactions will cause an increase in circulating leukocytes, defined as leukocytosis, as measured at 1-1.5 h post-administration. This leukocytosis is indicative that normal lymphocyte or leukocyte emigration from the peripheral circulation was prevented. Similar emigration of cells out of the circulation into inflamed tissues is responsible for the progression and maintainance of the inflammatory state. Leukocytosis is an indication that lymphocyte and leukocyte extravasation is prevented, and is predictive of general anti-inflammatory activity.
One week prior to being tested, 7-10 week old female Balb/c mice, n=8 per group, were bled and randomized according to leukocyte counts. One week later, the mice were adminstered test compound orally or subcutaneously and then bled 1-1.5 h after drug administration, approximately 1 h after the peak blood concentration of the compound has occurred. Whole blood, 250-350 microliters, was collected from each mouse into potassium-EDTA […] collection tubes (Becton-Dickenson) and mixed to prevent clotting.
Cell counts and differential counts on the whole blood preparation were performed using an Advia 120 Hematology System (Bayer Diagnostics). Cell counts as total leukocytes and as total lympohcytes were made and compared to counts made from mice dosed with vehicle only. Data were reported as percent of vehicle control for lymphocyte counts and total leukocyte counts.
Statistical analyses were performed using ANOVA with Dunnet's multiple comparison test.

pIC50: −log10 of the molar value.

T1 sequence (P05556 21-798, one chain of several): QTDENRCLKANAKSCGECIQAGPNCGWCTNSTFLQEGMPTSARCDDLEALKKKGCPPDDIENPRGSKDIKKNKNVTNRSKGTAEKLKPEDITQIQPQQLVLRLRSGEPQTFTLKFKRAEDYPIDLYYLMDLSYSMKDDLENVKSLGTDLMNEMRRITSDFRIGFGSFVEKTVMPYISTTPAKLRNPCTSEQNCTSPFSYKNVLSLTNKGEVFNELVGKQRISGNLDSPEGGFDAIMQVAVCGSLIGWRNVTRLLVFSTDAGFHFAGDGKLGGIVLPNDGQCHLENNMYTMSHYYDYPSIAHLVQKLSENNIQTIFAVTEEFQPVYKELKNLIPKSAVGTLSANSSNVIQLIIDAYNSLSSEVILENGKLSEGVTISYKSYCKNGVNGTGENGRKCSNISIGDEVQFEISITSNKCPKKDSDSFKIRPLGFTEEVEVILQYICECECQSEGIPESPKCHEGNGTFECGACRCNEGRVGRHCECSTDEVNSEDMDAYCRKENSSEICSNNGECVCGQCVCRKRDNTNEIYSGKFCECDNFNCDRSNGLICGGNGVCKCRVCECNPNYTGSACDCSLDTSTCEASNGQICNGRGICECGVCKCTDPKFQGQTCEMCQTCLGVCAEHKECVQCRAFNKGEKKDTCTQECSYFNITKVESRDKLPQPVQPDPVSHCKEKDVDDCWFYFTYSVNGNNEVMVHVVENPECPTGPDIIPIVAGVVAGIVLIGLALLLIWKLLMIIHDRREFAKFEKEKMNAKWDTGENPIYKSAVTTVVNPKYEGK

For `COc1cnn(C)c(=O)c1-c1ccc(C[C@H](NC(=O)N(C)CC(C)C)C(=O)O)cc1` [Cpd 13], the pIC50 (as a rule, the negative decadic logarithm of the IC50, by convention in mol/L) in test [1] is 5.76; in test [2] it was 7.77. The “Lymphoycte Counts % of Vehicle Control” value in test [3] (3 mg/kg sc) was 84.4 % of Vehicle Control; in test [3] (10 mg/kg sc), 133.6 % of Vehicle Control; in test [3] (30 mg/kg sc), 154.3 % of Vehicle Control. The “Total Leukocyte Count % of Vehicle Control” value is 84.4 % of Vehicle Control in test [3] (3 mg/kg sc), 133.5 % of Vehicle Control in test [3] (10 mg/kg sc) and 149.5 % of Vehicle Control in test [3] (30 mg/kg sc).

For `COc1cnn(C)c(=O)c1-c1ccc(C[C@H](NC(=O)N2CCC[C@H]2CN2CCCC2)C(=O)O)cc1` [Cpd 39], the pIC50 in test [1] was below 5.30; in test [2] it was 6.06.

In the case of `COc1cnn(C)c(=O)c1-c1ccc(C[C@H](NC(=O)N2CCC[C@@H]2CNc2ccccc2)C(=O)O)cc1` [Cpd 38], the pIC50 in test [1] was below 5.30; in test [2], 6.01.

Take `COc1cnn(C)c(=O)c1-c1ccc(C[C@H](NC(=O)NCc2ccccc2)C(=O)O)cc1` [Cpd 9]: the pIC50 in test [1] is below 5.30; in test [2], 6.43.

As for `COc1cnn(C)c(=O)c1-c1ccc(C[C@H](NC(=O)N(C)c2ccccc2)C(=O)O)cc1` [Cpd 10], the figures for the pIC50 in test [1] and in test [2] were below 5.30 and 7.20, respectively.

Turning to `COc1cnn(CCO)c(=O)c1-c1ccc(C[C@H](NC(=O)Nc2ccccc2F)C(=O)O)cc1` [Cpd 4], the pIC50 in test [1] was below 5.30; in test [2] it was 5.56.

For `COc1cnn(C)c(=O)c1-c1ccc(C[C@H](NC(=O)N(c2ccccc2)C(C)C)C(=O)O)cc1` [Cpd 42], the pIC50 is below 5.30 in test [1] and 7.04 in test [2].

For the compound `COc1cnn(C)c(=O)c1-c1ccc(C[C@H](NC(=O)N2CCN(c3ncc(C(F)(F)F)cc3Cl)CC2)C(=O)O)cc1` [Cpd 24], the pIC50 in test [1] is below 5.30; in test [2] it was 6.41.

As to `COc1cnn(C)c(=O)c1-c1ccc(C[C@H](NC(=O)N(c2ccccc2)c2ccccc2)C(=O)O)cc1` [Cpd 47], the results for the negative-log IC50 (pIC50) in test [1] and in test [2] were below 5.30 and 5.84, respectively.

Consider `COc1cnn(C)c(=O)c1-c1ccc(C[C@H](NC(=O)N(Nc2ccccc2)c2ccccc2)C(=O)O)cc1` [Cpd 46], for which the pIC50 in test [1] is below 5.30; in test [2], 6.24.

`COc1cnn(C)c(=O)c1-c1ccc(C[C@H](NC(=O)N(C)CCO)C(=O)O)cc1` [Cpd 14]: the figures for the pIC50 in test [1] and in test [2] were below 5.30 and 7.03, respectively.

As for `COc1cnn(CCO)c(=O)c1-c1ccc(C[C@H](NC(=O)NC2CCCCC2)C(=O)O)cc1` [Cpd 3], the pIC50 in test [1] was below 5.30; in test [2] it was 6.51.

Take `COc1cnn(C)c(=O)c1-c1ccc(C[C@H](NC(=O)N(C2CC2)C2CCN(C)CC2)C(=O)O)cc1` [Cpd 22]: the pIC50 in test [1] is below 5.30; in test [2], 6.87.

With `COc1cccc2c1OCCCN(C(=O)N[C@@H](Cc1ccc(-c3c(OC)cnn(C)c3=O)cc1)C(=O)O)C2` [Cpd 32], the pIC50 in test [1] was below 5.30; in test [2] it was 6.37.

For `COc1cnn(C)c(=O)c1-c1ccc(C[C@H](NC(=O)N(Cc2ccccc2)c2ccccc2)C(=O)O)cc1` [Cpd 48], the pIC50 in test [1] is below 5.30; in test [2], 7.17.

On to `COc1cnn(C)c(=O)c1-c1ccc(C[C@H](NC(=O)NCCO)C(=O)O)cc1` [Cpd 7], for which the values for the pIC50 in test [1] and in test [2] were below 5.30 and 6.10, respectively.

Regarding `COc1cnn(C)c(=O)c1-c1ccc(C[C@H](NC(=O)N(C(C)C)C(C)C)C(=O)O)cc1` [Cpd 1, 2-(3,3-Diisopropyl-ureido)-3-[4-(5-methoxy-2-methyl-3-oxo-2,3-dihydro-pyridazin-4-yl)-phenyl]-propionic acid], the figures for the pIC50 in test [1] and in test [2] were below 6.00 and 6.91, respectively.

With `CC#CCN(Cc1ccco1)C(=O)N[C@@H](Cc1ccc(-c2c(OC)cnn(C)c2=O)cc1)C(=O)O` [Cpd 31], the pIC50 in test [1] was below 5.30; in test [2], 6.38.

Turning to `COc1cnn(C)c(=O)c1-c1ccc(C[C@H](NC(=O)N(C(C)C)C2CCCCC2)C(=O)O)cc1` [Cpd 33], the pIC50 was below 5.30 in test [1] and 6.51 in test [2].

`COc1cnn(C)c(=O)c1-c1ccc(C[C@H](NC(=O)N(C)c2ccccc2OC(F)(F)F)C(=O)O)cc1` [Cpd 51]: the pIC50 was below 5.30 in test [1] and 7.28 in test [2].
